“Also recorded” adds a separate entry of the source. Where a name gives a salt, the structure may show the parent alone.
Key:
[1] = Cast film plasticizer comparison study (discoloration); format: physicochemical; design: key: 1 = least discoloration; 5 = greatest discoloration; settings: ranitidine HCl spread on cast HPMC film with plasticizer (0.2 gm per gram HPMC); 60 degrees centigrade/78.9% RH, approximately two weeks; visual
Experimental: Cast film studies are performed using a typical film aqueous coating composition containing, on a per gram HPMC dry weight basis, plasticizer, 0.2 gm, and Opaspray (trademark of Colorcon, Inc., West Point, PA) colorant solids 0.5 gm. Cast films are prepared by adding 1.5 g of a 15% solids solution to a uniform plate, 42 mm in diameter, and drying at ambient temperature for at least 24 hours. Ranitidine HCl (1.5 gm), of particle size 50 to 200 microns, is then spread uniformly on the dried film coating and stored at 60 degrees centigrade/78.9% relative humidity (RH) for approximately two weeks. The RH is controlled by using a desiccator jar and a saturated KBr solution, which is maintained at 60° C. in a drying oven. […] After two weeks, the cast films are removed and visually examined for discoloration.

[2] = Compatibility of plasticizer with ranitidine HCl; settings: plasticizer in polymeric film coating of ranitidine HCl tablets
[3] = Physicians' Desk Reference, 41st ed., page 993 (1987); cited from earlier work
[4] = cited from earlier work

Cast Film Discoloration [1] | Structure (SMILES) | reactivity with ranitidine HCl or promotion of its degradation [2] | further results
5 | OCC(O)CO [Glycerol, glycerol] |  | 
1 | CC(=O)OCC(COC(C)=O)OC(C)=O [Triacetin, 1,2,3-propanetriol triacetate] | essentially unreactive with ranitidine HCl | 
3 | CCOC(=O)CC(O)(CC(=O)OCC)C(=O)OCC [Triethyl Citrate, triethyl citrate] |  | 
 | CCCCOC(=O)CCCCCCCCC(=O)OCCCC [dibutyl sebecate] | tend to react with ranitidine HCl or promote degradation at the tablets' surfaces | 
 | CCOC(=O)c1ccccc1C(=O)OCC [diethyl phthalate] | tend to react with ranitidine HCl or promote degradation at the tablets' surfaces | 
 | CNC(=C[N+](=O)[O-])NCCSCc1ccc(CN(C)C)o1 [ranitidine HCl] |  | degradation upon aging [3]: accelerated by heat, moisture and light; solubility in water ([4]; 25° C.): greater than 900 mg/mL; solubility in commonly used organic solvents [4]: very soluble

Structure (SMILES) | Cast Film Discoloration [1] | reactivity with ranitidine HCl or promotion of its degradation [2] | further results
CC(O)CO (centres unmarked) [Propylene Glycol, propylene glycol] | 2 | promote degradation; also recorded: tend to react with ranitidine HCl or promote degradation at the tablets' surfaces | 
